Experimental data published in patent publication US20080146606A1, “NOVEL COMPOUNDS” (priority 2006, published 2008).

Test system: LPS-induced TNFα production
Assay: LPS-induced TNFα production in rats
Assay type: in vivo
Conditions: Rattus norvegicus, po, pretreated orally
Experimental: Male Lewis rats (180-200 g) from Charles River Breeding Laboratories (Portage) ACUC Protocol#05051 were pretreated orally with compound or vehicle. After a determined pretreatment time, the rats were given LPS (lipopolysaccharide from Escherichia coli Serotype 055-B5, Sigma Chemical Co., St Louis, Mo.) 30 μg/rat in 0.5 ml saline, intraperitoneally. The rats were euthanized by CO2 inhalation 90 minutes after the LPS injection and blood samples were collected by cardiac puncture, transferred into heparinized tubes and stored on ice. The blood samples were centrifuged at 2000 rpm for 10 minutes and the plasma collected for analysis by specific ELISA for TNFα levels.
The plasma samples were assayed for TNFα according to manufactures specifications. TNFα levels were expressed as pg/ml. Elisa kits were purchased from R&D Systems Inc. (Rat TNFα Quantikine Kit Catalog#RTA00).

In the case of `O=S(=O)(NCCO)c1ccc(-c2ccnc3[nH]c(C4CC4)cc23)cc1` [Example 145a, 4-(2-Cyclopropyl-1H-pyrrolo[2,3-b]pyridin-4-yl)-N-(2-hydroxyethyl)-benzenesulfonamide], the ED50 is reported as < 20 mg/kg.
